Patent US20250387438A1, “USE OF […] SP. OR COMPOSITION COMPRISING SAME IN PREVENTION OR TREATMENT OF TUMORS, AND DRUG COMPRISING SAME” (Moon (Guangzhou) Biotech Co., Ltd., priority 2022, published 2025)

Columns and labels:
[1] = system: Christensenella sp. MNH04863; test: Antibiotic susceptibility testing by disk diffusion method; format: cell-based; details: for Inhibition Zone Diameter: against Christensenella sp. MNH04863
From the text: The disk diffusion method was used to conduct the antibiotic susceptibility testing of Christensenella sp. MNH04863. Christensenella sp.

[2] = system: KPC mouse pancreatic cancer cells; details: in vivo
[3] = system: KPC mouse pancreatic cancer cells; test: Pancreatic cancer mouse homologous tumor model, combination with gemcitabine

Row | Molecule | Susceptibility of Christensenella sp. MNH04863 to the antibiotic [1] | Inhibition Zone Diameter [1] | further results
1 | CC1(C)S[C@@H]2[C@H](NC(=O)[C@H](N)c3ccccc3)C(=O)N2[C@H]1C(=O)O [Ampicillin (AMP), Ampicillin] | resistance | 0 mm | –
2 | CO/N=C(\C(=O)N[C@@H]1C(=O)N2C(C(=O)O)=C(CSc3nc(=O)c(=O)[nH]n3C)CS[C@H]12)c1csc(N)n1 [Ceftriaxone (CTR), Ceftriaxone] | sensitive | 37.32 mm | –
3 | O=C(N[C@H](CO)[C@H](O)c1ccc([N+](=O)[O-])cc1)C(Cl)Cl [Chloramphenicol (C), Chloramphenicol] | sensitive | 38.88 mm | –
4 | O=C(O)c1cn(C2CC2)c2cc(N3CCNCC3)c(F)cc2c1=O [Ciprofloxacin (CIP), Ciprofloxacin] | resistance | 0 mm | –
5 | CC[C@H]1OC(=O)[C@H](C)[C@@H](O[C@H]2C[C@@](C)(OC)[C@@H](O)[C@H](C)O2)[C@H](C)[C@@H](O[C@@H]2O[C@H](C)C[C@H](N(C)C)[C@H]2O)[C@](C)(O)C[C@@H](C)C(=O)[C@H](C)[C@@H](O)[C@]1(C)O [Erythromycin (E), Erythromycin] | sensitive | 16.82 mm | –
6 | Nc1ccn([C@@H]2O[C@H](CO)[C@@H](O)C2(F)F)c(=O)n1 [Gemcitabine] | – | – | Number of Euthanized mice ([2]; C57BL/6J): 2; Average Weight Before Dissection [2]: 21.13 g; Average Dissected Tumor Weight ([3]; experimental endpoint): 0.68 g; Experimental Endpoint TGI ([3]; vs control): 40.0%
7 | CCC[C@@H]1C[C@@H](C(=O)N[C@@H]([C@H]2O[C@H](SC)[C@H](O)[C@@H](O)[C@H]2O)[C@@H](C)O)N(C)C1 [Lincomycin (MY), Lincomycin] | sensitive | 29.86 mm | –
8 | CN(C)[C@@H]1C(O)=C(C(N)=O)C(=O)[C@@]2(O)C(O)=C3C(=O)c4c(O)cccc4[C@@](C)(O)[C@H]3C[C@@H]12 [Tetracycline (TET), Tetracycline] | – | 46.11 mm | –
9 | Compound Sulfamethoxazole [Compound Sulfamethoxazole (SXT)] | resistance | 0 mm | –
10 | Gentamycin [Gentamycin (GEN)] | resistance | 0 mm | –
11 | Penicillin [Penicillin (PEN)] | sensitive | 43.06 mm | –
